Assay results as given in patent publication US7205382B2, “Peptides, the production and use thereof for binding immunoglobulins” (Fresenius Medical Care Affina GmbH, priority 2000, dated 2007).
Bridge positions count the residues as written; N and C are the ends. Ends that are not written are not given here. cellulose = not defined here; βAla = NCCC(=O)O

How the values were obtained:
Format in all cases: binding
Parameters in all cases: key: No binding of immunoglobulin for the defined peptide variant, detection negative: 0; Binding of immunoglobulin for the defined peptide variant, detection positive: +
serum albumin = assay: Cellulose-immobilized 13-mer peptide variants incubated with serum albumin (negative control), anti-human IgG-AP detection; details: blocking buffer without addition, 3 h room temperature
Outline: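 Spot membrane, (βA)(βA) spacer; T-TBS pH 8.0 wash, block 5% saccharose/4% BSA. 3 h RT with IgG-Fc 1 μg/ml, serum 1:10,000, or block buffer only (specificity control). 3× wash, AP-anti-human IgG 1.2 μg/ml, NBT/BCIP in pH 9.5 buffer.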

[1] = test system: immunoglobulins in human plasma; assay: Cellulose-immobilized 13-mer peptide variants incubated with human plasma, anti-human IgG-AP detection; details: human plasma as sample, diluted 1:10,000 in blocking buffer, 3 h room temperature
Outline: (§1)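 Peptides on cellulose via a (βA)(βA) spacer were blocked in T-TBS (pH 8.0) with 5% saccharose and 4% BSA, then exposed for 3 h at room temperature to IgG-Fc (1 μg/ml), serum diluted 1:10,000, or blocking buffer alone. Bound IgG was detected with AP-anti-human IgG (1.2 μg/ml) and NBT/BCIP colour development.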

human IgG-Fc = assay: Cellulose-immobilized 13-mer peptide variants incubated with human IgG-Fc, anti-human IgG-AP detection; details: IgG-Fc 1 μg/ml in blocking buffer, 3 h room temperature
Outline: as §1

| Substance | Result for incubation with serum albumin (immunoglobulin binding detection) (serum albumin) | Result for incubation with human plasma (immunoglobulin binding detection) [1] | Result for incubation with human IgG-Fc (immunoglobulin binding detection) (human IgG-Fc) |
| --- | --- | --- | --- |
| 06P: cellulose-bound 13-mer variant DCAWHPGELVWCT-(βA)(βA) (DCAWHPGELVWCT-{βAla-βAla-cellulose}; disulfide 2-12 (inferred); not fully specified (N-terminus); printed as DCAWHPGELVWCT-(βA)(βA); reading uncertain) | 0 | 0 | 0 |
| 06Q: cellulose-bound 13-mer variant DCAWHQGELVWCT-(βA)(βA) (DCAWHQGELVWCT-{βAla-βAla-cellulose}; disulfide 2-12 (inferred); not fully specified (N-terminus); printed as DCAWHQGELVWCT-(βA)(βA); reading uncertain) | 0 | + | + |
| 06R: cellulose-bound 13-mer variant DCAWHRGELVWCT-(βA)(βA) (DCAWHRGELVWCT-{βAla-βAla-cellulose}; disulfide 2-12 (inferred); not fully specified (N-terminus); printed as DCAWHRGELVWCT-(βA)(βA); reading uncertain) | 0 | + | + |
| 06S: cellulose-bound 13-mer variant DCAWHSGELVWCT-(βA)(βA) (DCAWHSGELVWCT-{βAla-βAla-cellulose}; disulfide 2-12 (inferred); not fully specified (N-terminus); printed as DCAWHSGELVWCT-(βA)(βA); reading uncertain) | 0 | 0 | + |
| 06T: cellulose-bound 13-mer variant DCAWHTGELVWCT-(βA)(βA) (DCAWHTGELVWCT-{βAla-βAla-cellulose}; disulfide 2-12 (inferred); not fully specified (N-terminus); printed as DCAWHTGELVWCT-(βA)(βA); reading uncertain) | 0 | 0 | + |
| 06V: cellulose-bound 13-mer variant DCAWHVGELVWCT-(βA)(βA) (DCAWHVGELVWCT-{βAla-βAla-cellulose}; disulfide 2-12 (inferred); not fully specified (N-terminus); printed as DCAWHVGELVWCT-(βA)(βA); reading uncertain) | 0 | 0 | 0 |
| 06W: cellulose-bound 13-mer variant DCAWHWGELVWCT-(βA)(βA) (DCAWHWGELVWCT-{βAla-βAla-cellulose}; disulfide 2-12 (inferred); not fully specified (N-terminus); printed as DCAWHWGELVWCT-(βA)(βA); reading uncertain) | 0 | 0 | 0 |
| 07A: cellulose-bound 13-mer variant DCAWHLAELVWCT-(βA)(βA) (DCAWHLAELVWCT-{βAla-βAla-cellulose}; disulfide 2-12 (inferred); not fully specified (N-terminus); printed as DCAWHLAELVWCT-(βA)(βA); reading uncertain) | 0 | 0 | 0 |
| 07C: cellulose-bound 13-mer variant DCAWHLCELVWCT-(βA)(βA) (DCAWHLCELVWCT-{βAla-βAla-cellulose}; not fully specified (N-terminus); printed as DCAWHLCELVWCT-(βA)(βA); cysteine pairing not given here; reading uncertain) | 0 | 0 | 0 |
| 07D: cellulose-bound 13-mer variant DCAWHLDELVWCT-(βA)(βA) (DCAWHLDELVWCT-{βAla-βAla-cellulose}; disulfide 2-12 (inferred); not fully specified (N-terminus); printed as DCAWHLDELVWCT-(βA)(βA); reading uncertain) | 0 | + | + |
| 07E: cellulose-bound 13-mer variant DCAWHLEELVWCT-(βA)(βA) (DCAWHLEELVWCT-{βAla-βAla-cellulose}; disulfide 2-12 (inferred); not fully specified (N-terminus); printed as DCAWHLEELVWCT-(βA)(βA); reading uncertain) | 0 | 0 | 0 |
| 07F: cellulose-bound 13-mer variant DCAWHLFELVWCT-(βA)(βA) (DCAWHLFELVWCT-{βAla-βAla-cellulose}; disulfide 2-12 (inferred); not fully specified (N-terminus); printed as DCAWHLFELVWCT-(βA)(βA); reading uncertain) | 0 | 0 | 0 |
| 07H: cellulose-bound 13-mer variant DCAWHLHELVWCT-(βA)(βA) (DCAWHLHELVWCT-{βAla-βAla-cellulose}; disulfide 2-12 (inferred); not fully specified (N-terminus); printed as DCAWHLHELVWCT-(βA)(βA); reading uncertain) | 0 | 0 | 0 |
| 07I: cellulose-bound 13-mer variant DCAWHLIELVWCT-(βA)(βA) (DCAWHLIELVWCT-{βAla-βAla-cellulose}; disulfide 2-12 (inferred); not fully specified (N-terminus); printed as DCAWHLIELVWCT-(βA)(βA); reading uncertain) | 0 | 0 | 0 |
| 07K: cellulose-bound 13-mer variant DCAWHLKELVWCT-(βA)(βA) (DCAWHLKELVWCT-{βAla-βAla-cellulose}; disulfide 2-12 (inferred); not fully specified (N-terminus); printed as DCAWHLKELVWCT-(βA)(βA); reading uncertain) | 0 | 0 | 0 |
| 07L: cellulose-bound 13-mer variant DCAWHLLELVWCT-(βA)(βA) (DCAWHLLELVWCT-{βAla-βAla-cellulose}; disulfide 2-12 (inferred); not fully specified (N-terminus); printed as DCAWHLLELVWCT-(βA)(βA); reading uncertain) | 0 | 0 | 0 |
| 07M: cellulose-bound 13-mer variant DCAWHLMELVWCT-(βA)(βA) (DCAWHLMELVWCT-{βAla-βAla-cellulose}; disulfide 2-12 (inferred); not fully specified (N-terminus); printed as DCAWHLMELVWCT-(βA)(βA); reading uncertain) | 0 | 0 | 0 |
| 07N: cellulose-bound 13-mer variant DCAWHLNELVWCT-(βA)(βA) (DCAWHLNELVWCT-{βAla-βAla-cellulose}; disulfide 2-12 (inferred); not fully specified (N-terminus); printed as DCAWHLNELVWCT-(βA)(βA); reading uncertain) | 0 | 0 | 0 |
| 07P: cellulose-bound 13-mer variant DCAWHLPELVWCT-(βA)(βA) (DCAWHLPELVWCT-{βAla-βAla-cellulose}; disulfide 2-12 (inferred); not fully specified (N-terminus); printed as DCAWHLPELVWCT-(βA)(βA); reading uncertain) | 0 | 0 | 0 |
